Active and inactive are the calls of the source. The rule behind the calls is not given here.

In one assay the test system is A2780. Kind of assay: Cytotoxicity against human A2780 cells assessed as reduction in cell viability at 20 ug/ml after 72 hrs by CyQuant dye based assay. The format is functional.
The species entered for a further assay is Homo sapiens. The experiment in a line: Inhibition of TNFalpha-induced NFkappaB activation in HEK293 cells at 40 uM after 6 hrs by luciferase reporter gene assay relative to control. The format is cell-based.
A short description of assay [1]: Inhibition of TNFalpha-induced NFkappaB activation in HEK293 cells after 6 hrs by luciferase reporter gene assay. The following applies: Homo sapiens, HEK293, 6 h. The assay is classed as cell-based.
The next assay has as its system Escherichia coli. The experiment in a line: Antibacterial activity against Escherichia coli. The assay is classed as functional.
In another assay the test system is Pseudomonas aeruginosa. The experiment in a line: Antibacterial activity against Pseudomonas aeruginosa. The format is functional.
Another assay relates to Staphylococcus aureus. The experiment in a line: Antibacterial activity against Staphylococcus aureus. The assay is classed as functional.
For the next assay, the system named is Bacillus subtilis. Kind of assay: Antibacterial activity against Bacillus subtilis. The assay is classed as functional.
A further assay relates to Penicillium chrysogenum. The experiment in a line: Antifungal activity against Penicillium chrysogenum. The format is functional.
The test system of a further assay is Aspergillus niger. Kind of assay: Antifungal activity against Aspergillus niger. The format is functional.
The subject of a further assay is Paecilomyces lilacinus. The experiment in a line: Antifungal activity against Paecilomyces lilacinus. Particulars: Purpureocillium lilacinum. The assay is classed as functional.
For a further assay, the system named is Fusarium graminearum. Kind of assay: Antifungal activity against Fusarium graminearum. The format is functional.
The species named for the next assay is Sus scrofa. The experiment in a line: Displacement of [3H]MLA from alpha7* nAChR in pig adrenal membranes. The assay is classed as cell membranes.
In assay [2] the target is Neuronal acetylcholine receptor; alpha4/beta2 (Rattus norvegicus) (UniProt P09483+P12390). Kind of assay: Displacement of [3H]epibatidine from alpha4beta2* nAChR in Sprague-Dawley rat forebrain membranes. The following applies: Membrane.
Assay [3] deals with Neuronal acetylcholine receptor; alpha3/beta4 (Rattus norvegicus) (UniProt P04757+P12392). Kind of assay: Displacement of [3H]epibatidine from alpha3beta4* nAChR in Sprague-Dawley rat forebrain membranes. Particulars: Membrane.
The next assay relates to Tetronarce californica. Kind of assay: Displacement of [3H]epibatidine from (alpha1)2beta1gammadelta nAChR in Torpedo californica electroplax membranes.

On to `COc1cc(/C=C/C(=O)NCCCCNC(N)=O)ccc1O`, for which the outcome with A2780, in the assay with Escherichia coli, with Pseudomonas aeruginosa, in the assay on Staphylococcus aureus, with Bacillus subtilis and with Penicillium chrysogenum was inactive. The outcome with Aspergillus niger, with Paecilomyces lilacinus and in the assay on Fusarium graminearum was inactive. Moreover, in the assay listed under Homo sapiens, the inhibition was > 60%. In assay [1], this molecule displayed a concentration for half-maximal inhibition (IC50) of 36 µM. Further, the inhibition result (in the assay filed under Sus scrofa; in assay [2]; in assay [3]; in the assay with Tetronarce californica) was “inactive” throughout.
In the case of `COc1cc([C@H]2Oc3c(OC)cc(/C=C/C(=O)NCCCCNC(N)=O)cc3[C@@H]2CO)ccc1O`, the result in the assay on A2780, in the assay on Escherichia coli, in the assay with Pseudomonas aeruginosa, in the assay with Staphylococcus aureus, in the assay with Bacillus subtilis and in the assay on Penicillium chrysogenum was inactive. In addition, the result in the assay with Aspergillus niger, in the assay on Paecilomyces lilacinus and in the assay on Fusarium graminearum was inactive. Besides, the inhibition result (in the assay filed under Homo sapiens; in the assay listed under Sus scrofa; in assay [2]; in [3]; with Tetronarce californica) was “inactive” in each case.

These data come from ChEMBL document CHEMBL4043237, “Heliotropiumides A and B, new phenolamides with N-carbamoyl putrescine moiety from Heliotropium foertherianum collected in Hawaii and their biological activities” (Bioorg Med Chem Lett, 2017).
